Measured values from PubChem BioAssay AID2060512 (Molecular Pharmacology Branch, DTP, NCI, 2025).

Tested on: 186277-243-T-J2-PDC complex spheroid viability
Test: Anticancer human tumor 186277-243-T-J2-PDC patient-derived colon adenocarcinoma cell line growth inhibition [GQUAD]
Details: for IC50: curve of first compound; for viability, T/C: stronger effect = lower value; active means viability on the fitted dose curve at most 10% of control; inactive means the rest
Procedure, shortened: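 Multi-cell-type spheroids of tumor cells with HUVEC and mesenchymal stem cells, treated with drug combinations. Concentrations descend in half-log steps from near clinical Cmax, or from 10 microM where Cmax is unknown; viability read-out.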

[1] = second compound 0.0316 µM, first compound 0.0316 µM
[2] = second compound 0.0316 µM, first compound 0.1 µM
[3] = second compound 0.0316 µM, first compound 0.316 µM
[4] = second compound 0.0316 µM, first compound 1 µM
[5] = second compound 0.0316 µM, first compound 3.16 µM
[6] = second compound 0.0316 µM, first compound 10 µM
[7] = second compound 0.1 µM, first compound 0.0316 µM
[8] = second compound 0.1 µM, first compound 0.1 µM
[9] = second compound 0.1 µM, first compound 0.316 µM
[10] = second compound 0.1 µM, first compound 1 µM
[11] = second compound 0.1 µM, first compound 3.16 µM
[12] = second compound 0.1 µM, first compound 10 µM
[13] = second compound 0.316 µM, first compound 0.0316 µM
[14] = second compound 0.316 µM, first compound 0.1 µM
[15] = second compound 0.316 µM, first compound 0.316 µM
[16] = second compound 0.316 µM, first compound 1 µM
[17] = second compound 0.316 µM, first compound 3.16 µM
[18] = second compound 0.316 µM, first compound 10 µM
[19] = second compound 1 µM, first compound 0.0316 µM
[20] = second compound 1 µM, first compound 0.1 µM
[21] = second compound 1 µM, first compound 0.316 µM
[22] = second compound 1 µM, first compound 1 µM
[23] = second compound 1 µM, first compound 3.16 µM
[24] = second compound 1 µM, first compound 10 µM
[25] = second compound 3.16 µM, first compound 0.0316 µM
[26] = second compound 3.16 µM, first compound 0.1 µM
[27] = second compound 3.16 µM, first compound 0.316 µM
[28] = second compound 3.16 µM, first compound 1 µM
[29] = second compound 3.16 µM, first compound 3.16 µM
[30] = second compound 3.16 µM, first compound 10 µM
[31] = second compound 10 µM, first compound 0.0316 µM
[32] = second compound 10 µM, first compound 0.1 µM
[33] = second compound 10 µM, first compound 0.316 µM
[34] = second compound 10 µM, first compound 1 µM
[35] = second compound 10 µM, first compound 3.16 µM
[36] = second compound 10 µM, first compound 10 µM
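Further: spheroids exposed to drugs for 7 days.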
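Wherever viability, T/C is given: 100% = DMSO vehicle control viability.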

C=CCn1c(=O)c2cnc(Nc3ccc(N4CCN(C)CC4)cc3)nc2n1-c1cccc(C(C)(C)O)n1 + Cc1[nH]c2ccc(F)cc2c1-c1nc2c3cccnc3c3ncccc3c2[nH]1
179 nM: IC50 (second compound 0.316 µM) | IC50 (second compound 1 µM)
138 nM: IC50 (second compound 10 µM)
174 nM: IC50 (second compound 0.0316 µM)
inactive: viability, T/C [1] 97.9% | viability, T/C [2] 83.8% | viability, T/C [3] 13.2% | viability, T/C [7] 112% | viability, T/C [8] 87.8% | viability, T/C [9] 13.6% | viability, T/C [13] 108% | viability, T/C [14] 88% | viability, T/C [15] 12.7% | viability, T/C [19] 97.1% | viability, T/C [20] 87.4% | viability, T/C [21] 13.7% | viability, T/C [25] 96.4% | viability, T/C [26] 67.2% | viability, T/C [27] 11.1% | viability, T/C [31] 89.9% | viability, T/C [32] 64.6% | viability, T/C [33] 12.9%
142 nM: IC50 (second compound 3.16 µM)
active: viability, T/C [4] 7.62% | viability, T/C [5] 8.21% | viability, T/C [6] 8.87% | viability, T/C [10] 9.07% | viability, T/C [11] 9.3% | viability, T/C [12] 9.89% | viability, T/C [16] 8.61% | viability, T/C [17] 9.09% | viability, T/C [18] 11.5% | viability, T/C [22] 8.91% | viability, T/C [23] 9.37% | viability, T/C [24] 10.9% | viability, T/C [28] 8.17% | viability, T/C [29] 8.58% | viability, T/C [30] 10.8% | viability, T/C [34] 8.07% | viability, T/C [35] 8.03% | viability, T/C [36] 10.3%
180 nM: IC50 (second compound 0.1 µM)

CC(C)(O)C1CCC(Nc2ccc3ncc(-c4cccc(C(F)(F)F)c4)n3n2)CC1 (stereo not drawn) + Cc1[nH]c2ccc(F)cc2c1-c1nc2c3cccnc3c3ncccc3c2[nH]1
2450 nM: IC50 (second compound 3.16 µM)
2190 nM: IC50 (second compound 10 µM)
2750 nM: IC50 (second compound 1 µM)
inactive: viability, T/C [1] 105% | viability, T/C [2] 87.1% | viability, T/C [3] 86.5% | viability, T/C [4] 80.9% | viability, T/C [5] 42.2% | viability, T/C [6] 29.2% | viability, T/C [7] 100% | viability, T/C [8] 103% | viability, T/C [9] 78.8% | viability, T/C [10] 83.3% | viability, T/C [11] 49.8% | viability, T/C [12] 32.1% | viability, T/C [13] 90% | viability, T/C [14] 110% | viability, T/C [15] 97.3% | viability, T/C [16] 91.8% | viability, T/C [17] 46.1% | viability, T/C [18] 32.6% | viability, T/C [19] 98.8% | viability, T/C [20] 97% | viability, T/C [21] 90.5% | viability, T/C [22] 107% | viability, T/C [23] 41.7% | viability, T/C [24] 45% | viability, T/C [25] 95.6% | viability, T/C [26] 115% | viability, T/C [27] 107% | viability, T/C [28] 90.9% | viability, T/C [29] 37.9% | viability, T/C [30] 38.6% | viability, T/C [31] 91% | viability, T/C [32] 111% | viability, T/C [33] 113% | viability, T/C [34] 87.4% | viability, T/C [35] 29.4% | viability, T/C [36] 35.3%
2550 nM: IC50 (second compound 0.0316 µM)
2870 nM: IC50 (second compound 0.316 µM)
3840 nM: IC50 (second compound 0.1 µM)

Cc1[nH]c2ccccc2c1CCNCc1ccc(/C=C/C(=O)NO)cc1 + Cc1[nH]c2ccc(F)cc2c1-c1nc2c3cccnc3c3ncccc3c2[nH]1
47.5 nM: IC50 (second compound 10 µM)
44.2 nM: IC50 (second compound 0.1 µM)
active: viability, T/C (second compound 0.0316 µM, first compound 0.0999 µM) 9.83% | viability, T/C [3] 0.44% | viability, T/C [9] 0.56% | viability, T/C (second compound 0.316 µM, first compound 0.0999 µM) 9.88% | viability, T/C [15] 1.7% | viability, T/C (second compound 1 µM, first compound 0.0999 µM) 9.69% | viability, T/C [21] 0.96% | viability, T/C (second compound 3.16 µM, first compound 0.0999 µM) 9% | viability, T/C [27] 0.47% | viability, T/C [33] 1.07%
47.1 nM: IC50 (second compound 0.316 µM)
inactive: viability, T/C (second compound 0.0316 µM, first compound 0.000999 µM) 110% | viability, T/C (second compound 0.0316 µM, first compound 0.00316 µM) 108% | viability, T/C (second compound 0.0316 µM, first compound 0.00999 µM) 104% | viability, T/C [1] 62.1% | viability, T/C (second compound 0.1 µM, first compound 0.000999 µM) 115% | viability, T/C (second compound 0.1 µM, first compound 0.00316 µM) 105% | viability, T/C (second compound 0.1 µM, first compound 0.00999 µM) 90.7% | viability, T/C [7] 69.8% | viability, T/C (second compound 0.1 µM, first compound 0.0999 µM) 10.4% | viability, T/C (second compound 0.316 µM, first compound 0.000999 µM) 93.3% | viability, T/C (second compound 0.316 µM, first compound 0.00316 µM) 101% | viability, T/C (second compound 0.316 µM, first compound 0.00999 µM) 97% | viability, T/C [13] 71.2% | viability, T/C (second compound 1 µM, first compound 0.000999 µM) 90.5% | viability, T/C (second compound 1 µM, first compound 0.00316 µM) 107% | viability, T/C (second compound 1 µM, first compound 0.00999 µM) 104% | viability, T/C [19] 62.8% | viability, T/C (second compound 3.16 µM, first compound 0.000999 µM) 101% | viability, T/C (second compound 3.16 µM, first compound 0.00316 µM) 111% | viability, T/C (second compound 3.16 µM, first compound 0.00999 µM) 100% | viability, T/C [25] 61.1% | viability, T/C (second compound 10 µM, first compound 0.000999 µM) 95% | viability, T/C (second compound 10 µM, first compound 0.00316 µM) 98.5% | viability, T/C (second compound 10 µM, first compound 0.00999 µM) 99.9% | viability, T/C [31] 71.1% | viability, T/C (second compound 10 µM, first compound 0.0999 µM) 11.2%
40.4 nM: IC50 (second compound 3.16 µM)
41.8 nM: IC50 (second compound 1 µM)
41.3 nM: IC50 (second compound 0.0316 µM)

O=C(NO)c1cnc(N2CCN(S(=O)(=O)c3ccc4ccccc4c3)CC2)nc1 + Cc1[nH]c2ccc(F)cc2c1-c1nc2c3cccnc3c3ncccc3c2[nH]1
187 nM: IC50 (second compound 0.1 µM)
183 nM: IC50 (second compound 0.0316 µM)
218 nM: IC50 (second compound 10 µM)
active: viability, T/C [3] 9.84% | viability, T/C [4] 0.27% | viability, T/C [5] 0.17% | viability, T/C [6] 0.17% | viability, T/C [10] 0.25% | viability, T/C [11] 0.14% | viability, T/C [12] 0.12% | viability, T/C [16] 0.3% | viability, T/C [17] 0.12% | viability, T/C [18] 0.11% | viability, T/C [22] 0.34% | viability, T/C [23] 0.11% | viability, T/C [24] 0.13% | viability, T/C [28] 0.38% | viability, T/C [29] 0.14% | viability, T/C [30] 0.16% | viability, T/C [34] 0.52% | viability, T/C [35] 0.2% | viability, T/C [36] 0.22%
inactive: viability, T/C [1] 100% | viability, T/C [2] 94% | viability, T/C [7] 117% | viability, T/C [8] 95% | viability, T/C [9] 12.1% | viability, T/C [13] 103% | viability, T/C [14] 115% | viability, T/C [15] 13.1% | viability, T/C [19] 91.5% | viability, T/C [20] 95.1% | viability, T/C [21] 15.3% | viability, T/C [25] 100% | viability, T/C [26] 98.2% | viability, T/C [27] 19.7% | viability, T/C [31] 100% | viability, T/C [32] 98.5% | viability, T/C [33] 26.7%
203 nM: IC50 (second compound 0.316 µM) | IC50 (second compound 3.16 µM)
190 nM: IC50 (second compound 1 µM)
